Experimental data published in patent US5336762A, “Polychelating agents for image and spectral enhancement (and spectral shift)” (priority 1991, dated 1994).

How the values were obtained:
[1] = In vitro T1 relaxation of water protons (IBM PC20 Minispectrometer, 20 MHz); type: physicochemical
Description: Fe^+3 as the dextran-iron oxide (in which the iron is complexed loosely to the hydroxyl groups of dextran), was obtained as "Proferdex" (20% iron, w/w) (Fisons Pharmaceuticals) and tested, both before and after extensive dialysis (to remove loosely bound iron), for NMR T1-enhancing activity in vitro (using an IBM PC20 Minispectrometer, 20 MHz).

[2] = cited from earlier work
[3] = tested on: liver; experiment: Liver T1 decrease in mice; type: in vivo; settings: usual 30-minute imaging interval; 0.10 to 0.30 mmoles/kg
[4] = tested on: liver, kidney, bone marrow; experiment: In vivo MR imaging of normal tissues, Sprague-Dawley rats (0.35 Tesla)
Description: (§2) Sprague-Dawley rats were imaged using a 0.35-Tesla, Diasonics clinical MR imaging system and a 30-cm rf coil. Three clinically relevant pulse sequences were used: 1) spin-echo with a TR of 0.5 seconds (for T1-weighted images), 2) inversion-recovery (IR) (for T1-weighted images), and 3) spin-echo with a TR of 2.0 seconds (for T2-weighted images). Diasonics software was used to calculate the area-averaged tissue intensities before and after injection of contrast agents. Dual pulse sequences (spin-echo, with TR's of 0.5 and 1.5 seconds or 1.0 and 2.0 seconds) were also used to calculate the in vivo T1 relaxation times. At the conclusion of imaging, the liver, spleen and kidneys were excised and their T1 (IR) and T2 (Carr-Purcell-Meiboom-Gill) relaxation times were determined at 37° C., using an IBM PC20 Minispectrometer. For these in vitro experiments, uninjected rats were used in place of preinjection controls.
Post-contrast images were obtained serially beginning immediately after the i.v. injection of contrast agents and continuing for several hours thereafter.

[5] = tested on: spleen; experiment: T1 of freshly excised rat spleens; type: in vivo, Sprague-Dawley rats; settings: 30 min post vs. pre
Description: as §2

[6] = tested on: 7777-strain Morris hepatoma; experiment: MR imaging of Morris hepatoma (7777) in Buffalo rats; type: in vivo, Buffalo-strain rats; settings: after injection
Protocol: After two to three weeks the local tumors had reached an average diameter of 0.5 and 1.0 cm. The rats were then imaged both before and after i.v. injections of Gd-DTPA or microsphere Gd-DTPA. MR imaging was performed in a 30cm rf coil with a 0.35 Tesla, Diasonics clinical MRI system (as described above). Post-contrast images were obtained serially beginning immediately after injection and continuing for several hours thereafter.

[7] = tested on: blood in heart chambers; experiment: T1-weighted blood flow images of cardiac chambers; type: in vivo, Sprague-Dawley rats; settings: comparable Gd dose
Protocol: Gd:DTPA-dextran microspheres (at 0.3 mmoles Gd/kg) were injected i.v. at time zero into Sprague-Dawley rats and images were obtained immediately and serially each 5 minutes×4 (spin-echo, multi-echo, TR=0.5 and 1.5).

[8] = tested on: liver, kidney; experiment: Proton T1 relaxation times in mouse organs (Example 18a); type: in vivo, CBA mice; settings: 30 min; Gd dose 0.23 mmol/kg (DEAE forms), 0.47 (dimeglumine)
Protocol: Test materials were injected i.v. into 25 gm CBA mice. At 30 min the mice were sacrificed by decapitation (exsanguination) and the excised livers and kidneys assessed for changes in proton T1 relaxation times (20 MHz; IR pulse sequence). Doses of test materials were made equivalent based on in vitro potency (ID50 analysis).

[9] = tested on: liver, kidney, bone marrow; experiment: In vivo MR imaging T1 in rats (Example 18b); design: species or system Sprague-Dawley rats; settings: Gd 0.30 (soluble), 0.15 (microspheres), 0.30 (dimeglumine) mmol/kg; ~30 min
Protocol: (§1) Test materials were injected intravenously into 500 gm Sprague-Dawley rats. At approximately 30 minutes, the rats were placed in the head coil of a 0.35 Tesla clinical imaging device (Diasonics Corp.), and T1-weighted images (using both a spin-echo pulse sequence at TR's of 0.5, 1.5 and 2.0, and an inversion recovery sequence) were obtained on image slices of 0.5 cm thickness taken through the liver and kidneys. T1 relaxation times were determined from the TR=0.5 and 2.0 data using area-averaging of signal intensities and a proprietary software program for calculations. At the completion of imaging, the rats were sacrificed by decapitation (exsanguination). Their livers, kidneys and spleens were excised, tested for in vitro correlations with the in vivo changes in proton T1 relaxation times and then placed in buffered formalin fixative for histopathologic evaluation.

[10] = tested on: liver, spleen, kidney; experiment: In vitro T1 of excised rat organs (Example 18b); type: in vivo, Sprague-Dawley rats; settings: same doses
Protocol: as §1

[11] = tested on: BRO human melanoma; experiment: MR imaging of human BRO melanoma in nude mice; type: in vivo, Swiss-strain nude mice bearing human melanoma
Protocol: These studies are performed using the rapidly proliferating, amelanotic, BRO human melanoma grown to a weight of 2.0-6.0 gms in the axillary soft tissues of Swiss-strain nude mice. The amelanotic nature of the tumor avoids any potential for alteration of unenhanced tissue-relaxation times by naturally occurring paramagnetic substances which have been described for pigmented melanomas. The axillary location of tumors allows imaging of the tumor and liver in adjacent slices. This shortens the imaging time for each group of mice and provides maximal anatomic separation of tumors from the higher-intensity kidneys and bladder. MR imaging is performed on a Diasonics 0.35T instrument, using a 30-cm rf coil, and a T1-weighted spin-echo pulse sequence (TR 500, TE 40). Pentobarbital is used for animal anesthesia in order to avoid drug modulation of image intensities. T1 relaxation were performed on the freshly excised organs. In general, these T1's decreased in proportion to increased image intensities. […] The new soluble polymeric agent had the following advantages: […]

[12] = cited from earlier work; remark: listed apart in the source
[13] = tested on: human brain tumors; settings: preliminary studies; cited from earlier work
[14] = 30 min post vs. pre, Gd 0.3 mmoles/kg dimeglumine, 0.009 mmoles/kg microspheres

For `[Cl][Gd]([Cl])[Cl]` [GdCl3], the “R1 (in vitro T1 relaxivity)” value ([1]; physiologic saline) was 3.03 mM⁻¹ s⁻¹.
In the case of `O=C(O)CN1CCN(CC(=O)O)CCN(CC(=O)O)CCN(CC(=O)O)CC1` [DOTA, 1,4,7,10-tetraazacyclododecane-N,N',N"-tetraacetic acid], the “relaxivity, times that of Gd-DTPA” value ([2]; wide range of Larmor frequencies) is given as “approximately 2 times”.
In the case of `O=[N+]([O-])[O-].O=[N+]([O-])[O-].O=[N+]([O-])[O-].[Fe+3]` [Ferric nitrate], the R1 relaxivity ([1]; Table 1, iron compounds) is reported as 1.476 mmol⁻¹ s⁻¹.
In the case of `CNC[C@H](O)[C@@H](O)[C@H](O)[C@H](O)CO.CNC[C@H](O)[C@@H](O)[C@H](O)[C@H](O)CO.O=C([O-])CN(CCN(CC(=O)[O-])CC(=O)O)CCN(CC(=O)[O-])CC(=O)O.[Gd+3]` [Gd:DTPA dimeglumine], the “ID50 (total weight), concentration reducing T1 to 50% of buffered saline” value ([1]; 20 MHz, phosphate-buffered saline) is reported as 0.084 mg/mL, the “changes in liver T1” value [3] is reported as “minimal changes in liver Tl's” and the “% decrease in T1, kidney” value [4, 14] is reported as 55.7%. The “% decrease in T1, liver” value [4, 14] was 24.6%, the “time after which all liver enhancement was lost” value ([4]; rat, in vivo) was 50 min and the “% decrease in T1 of spleen” value [5] was 14.4%. The “time by which contrast was significantly reduced” value [6] was ≤ 1.5 h, the “enhancement of blood flow images” value [7] was “almost completely ineffective” and the “T1 (% of control), kidney” value [8] was 24%. For the same compound, the “T1 (% of control), liver” value [8] was 83%, the “T1 (% of control), in vivo, kidney” value [9] was 57% and the “T1 (% of control), in vivo, liver” value [9] was 83%. The “T1 (% of control), in vitro, liver” value ([10]; control 275 msec) was 88%, the “T1 (% of control), in vitro, spleen” value ([10]; control 464 msec) was 86% and the “T1 (% of control), in vitro, kidney” value ([10]; control 492 msec) was 25%. For the same compound, the “enhancement of BRO melanoma” value ([11]; 0.03 mmols Gd per kg) was “barely perceptible”, the “dose required for enhancement, higher than 0.03 mmols Gd per kg” value ([11]; in vivo) was 1/2 and the “clearance half-time from bloodstream and tumors” value ([12]; in vivo) was 20 min. For the same compound, the “sequestered in the kidneys” value ([12]; intravenous) was > 90%, the “relaxivity at higher radio frequencies” value ([2]; typically 15 MHz) was “marked decrease in relaxivity” and the “enhancement of human brain tumors” value [13] was “almost all human brain tumors undergo significant enhancement”.
